pKi: −log10 of the molar value.

Assay [1] has as its target human 5-HT2A serotonin receptor (Homo sapiens (Human), UniProt P28223). Briefly: Radioligand binding ([3H]-ketanserin) to cloned human 5-HT2A receptor expressed in HEK-293 EBNA cells. Conditions: membranes of transfected HEK-293 EBNA cells, 1.1 nM [3H]-ketanserin, 1 h at RT. Here is the method:
The ability of the compounds to bind to the 5-HT2A, D3 and D2 receptors was determined using radioligand binding to cloned receptors selectively expressed in HEK-293 EBNA cells.
(§1) HEK-293 EBNA cells were transiently transfected with expression plasmids encoding for the human D2 or D3 dopamine- or for the human 5-HT2A serotonin receptor, respectively. The cells were harvested 48 h post-transfection, washed three times with cold PBS and stored at −80° C. prior to use. The pellet was suspended in cold 50 mM Tris-HCl buffer containing 10 mM EDTA (pH 7.4) and homogenized with a Polytron (Kinematica AG, Basel, Switzerland) for 20-30 sec at 12,000 rpm. After centrifugation at 48,000×g for 30 min at 4° C., the pellet was resuspended in cold 10 mM Tris-HCl buffer containing 0.1 mM EDTA (pH 7.4), homogenized, and centrifuged as above. This pellet was further resuspended in a smaller volume of ice cold 10 mM Tris-HCl buffer containing 0.1 mM EDTA (pH 7.4) and homogenized with a Polytron for 20-30 sec at 12,000 rpm. The protein content of this homogenate was determined with the Bio-Rad (Bradford) Protein Assay (Biorad Laboratories GmbH, München, Germany) according to the instructions of the manufacturer using gamma globulin as the standard. This homogenate was stored at −80° C. in aliquots and thawed immediately prior to use.
Aliquots of membrane preparations were thawed at RT, resuspended in assay buffer (D2, D3: 50 mM Tris-HCl, 120 mM NaCl, 5 mM MgCl2, 1 mM EDTA, 5 mM KCl, 1.5 mM CaCl2, pH=7.4; 5-HT2A: 50 mM Tris-HCl, 10 mM MgCl2, 1 mM EGTA, pH=7.4), homogenized with a Polytron for 20-30 sec at 12,000 rpm and adjusted to a final concentration of approximately 7.5 μg protein/well (D2, D3) and 15 μg protein/well (5-HT2A), respectively.
(§2) The binding affinity (Ki) of the compounds was determined using radioligand binding. Membranes were incubated in a total volume of 200 μl with a fixed concentration of radioligand (final concentration approximately 0.7 nM [^3H]-spiperone for D2, 0.5 nM [^3H]-spiperone for D3, and 1.1 nM [^3H]-ketanserin for 5-HT2A) and ten concentrations of test compound in ranging between 10 μM-0.1 nM for 1 h at RT. At the end of the incubation, the reaction mixtures were filtered on to unifilter 96-well white microplates with bonded GF/C filters (Packard BioScience, Zürich, Switzerland; preincubated for 1 h in 0.1% polyethylenimine (PEI) in assay buffer) with a Filtermate 196 harvester (Packard BioScience) and washed 3 times with cold assay buffer. The nonspecific binding was determined with equally composed reaction mixtures in the presence of 10 μM unlabelled spiperone. Per well 45 μl of Microscint 40 (Perkin Elmer, Schwerzenbach, Switzerland) was added, plates for sealed, shaken for 20 min and counted for 3 min on a Topcount Microplate Scintillation Counter (Canberra Packard SA, Zürich, Switzerland) with quenching correction.
(§3) The CPM value for each duplicate of a concentration of competing compound was averaged (y1), then the % specific binding was calculated according to the equation (((y1−non-specific)/(total binding−non-specific))×100). Graphs were plotted with the % specific binding using XLfit, a curve fitting program that iteratively plots the data using Levenburg Marquardt algorithm. The single site competition analysis equation used was y=A+((B−A)/(1+((x/C)^D))), where y is the % specific binding, A is the minimum y, B is the maximum y, C is the IC50, x is the log10 of the concentration of the competing compound and D is the slope of the curve (the Hill Coefficient). From these curves the IC50 (inhibition concentration at which 50% specific binding of the radioligand was displaced) and Hill coefficient were determined. The affinity constant (Ki) was calculated using the Cheng-Prusoff equation Ki=(IC50/1+([L]/Kd), where [L] is the concentration of radioligand and Kd is the dissociation constant of the radioligand at the receptor as determined by the saturation isotherm.

The target in assay [2] is human D3 dopamine receptor (Homo sapiens (Human), UniProt P35462). The assay is described as follows: Radioligand binding ([3H]-spiperone) to cloned human D3 receptor expressed in HEK-293 EBNA cells. The following applies: membranes of transfected HEK-293 EBNA cells, 0.5 nM [3H]-spiperone, 1 h at RT. How it is done:
as §1, with “The pellet was suspended in cold 50 mM Tris-HCl buffer containing 10 mM EDTA (pH 7.4) and homogenized with a Polytron (Kinematica AG, Basel, Switzerland) for 20-30 sec at 12,000 rpm.” left out, “This pellet was further resuspended in a smaller volume of ice cold 10 mM Tris-HCl buffer containing 0.1 mM EDTA (pH 7.4) and homogenized with a Polytron for 20-30 sec at 12,000 rpm.” left out
as §2, §3

Chain of human D3 dopamine receptor (P35462 whole entry): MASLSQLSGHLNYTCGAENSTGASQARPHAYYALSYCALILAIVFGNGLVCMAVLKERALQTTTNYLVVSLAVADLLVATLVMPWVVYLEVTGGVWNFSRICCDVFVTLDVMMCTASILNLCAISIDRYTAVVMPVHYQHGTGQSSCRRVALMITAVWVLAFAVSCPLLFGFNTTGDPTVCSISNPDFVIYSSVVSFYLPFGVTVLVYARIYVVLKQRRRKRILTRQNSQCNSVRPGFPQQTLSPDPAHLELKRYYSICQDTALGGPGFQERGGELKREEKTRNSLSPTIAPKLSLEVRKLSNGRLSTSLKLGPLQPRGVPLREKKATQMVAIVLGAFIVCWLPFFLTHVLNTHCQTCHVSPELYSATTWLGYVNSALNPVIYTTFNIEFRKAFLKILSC

For `COc1cc(CC(=O)N[C@H]2CC[C@H](CCN3CCC(c4noc5cc(F)ccc45)CC3)CC2)cc(OC)c1` [Example 21, 2-(3,5-Dimethoxy-phenyl)-N-trans (4-{2-[4-(6-fluoro-benzo[d]isoxazol-3-yl)-piperidin-1-yl]-ethyl}-cyclohexyl)-acetamide], the pKi (in general, −log10 of the Ki, conventionally taken in molar units) was 8.53 in assay [1] and 8.06 in assay [2].

Turning to `CC1CN(c2ccc(C(=O)N[C@H]3CC[C@H](CCN4CCC(c5noc6cc(F)ccc56)CC4)CC3)cc2)CC(C)O1` (stereo partly drawn) [Example 22, 4-(2,6-Dimethyl-morpholin-4-yl)-N-trans (4-{2-[4-(6-fluoro-benzo[d]isoxazol-3-yl)-piperidin-1-yl]-ethyl}-cyclohexyl)-benzamide], the pKi in assay [1] is 7.67; in assay [2], 6.86.

Turning to `CC(=O)N[C@H]1CC[C@H](CCN2CCC(c3noc4ccc(F)cc34)CC2)CC1` [Example 24, N-trans(4-{2-[4-(5-Fluoro-benzo[d]isoxazol-3-yl)-piperidin-1-yl]-ethyl}-cyclohexyl)-acetamide], the pKi is 7.33 in assay [1] and 8.61 in assay [2].

For `O=C(N[C@H]1CC[C@H](CCN2CCC(c3noc4ccc(F)cc34)CC2)CC1)c1ccc(N2CCOCC2)cc1` [Example 25, N-trans(4-{2-[4-(5-Fluoro-benzo[d]isoxazol-3-yl)-piperidin-1-yl]-ethyl}-cyclohexyl)-4-morpholin-4-yl-benzamide], the results for the pKi in assay [1] and in assay [2] were 7.65 and 8.04, respectively.

For `O=C(N[C@H]1CC[C@H](CCN2CCC(c3noc4ccc(F)cc34)CC2)CC1)c1ccc(N2CCCCC2)cc1` [Example 27, N-trans(4-{2-[4-(5-Fluoro-benzo[d]isoxazol-3-yl)-piperidin-1-yl]-ethyl}-cyclohexyl)-4-piperidin-1-yl-benzamide], the pKi was 8.15 in assay [1] and 8.11 in assay [2].

As for `CC1CN(c2ccc(C(=O)N[C@H]3CC[C@H](CCN4CCC(c5noc6ccc(F)cc56)CC4)CC3)cc2)CC(C)O1` (stereo partly drawn) [Example 28, 4-(2,6-Dimethyl-morpholin-4-yl)-N-trans (4-{2-[4-(5-fluoro-benzo[d]isoxazol-3-yl)-piperidin-1-yl]-ethyl}-cyclohexyl)-benzamide], the pKi in assay [1] was 7.00; in assay [2], 7.07.

Consider `O=C(N[C@H]1CC[C@H](CCN2CCC(c3noc4ccc(F)cc34)CC2)CC1)c1ccc(N2CCS(=O)(=O)CC2)cc1` [Example 29, 4-(1,1-Dioxo-1,6,4-thiomorpholin-4-yl)-N trans-(4-{2-[4-(5-fluoro-benzo[d]isoxazol-3-yl)-piperidin-1-yl]-ethyl}-cyclohexyl)-benzamide], for which the pKi in assay [1] is 7.91; in assay [2] it was 8.23.

`COCCC(=O)N[C@H]1CC[C@H](CCN2CCC(c3noc4cc(Cl)ccc34)CC2)CC1` [Example 32, N-trans(4-{2-[4-(6-Chloro-benzo[d]isoxazol-3-yl)-piperidin-1-yl]-ethyl}-cyclohexyl)-3-methoxy-propionamide]: the pKi in assay [1] was 7.78; in assay [2] it was 8.07.

`O=C(N[C@H]1CC[C@H](CCN2CCC(c3noc4cc(Cl)ccc34)CC2)CC1)C(O)C(F)(F)F` (stereo partly drawn) [Example 33, N-trans-(4-{2-[4-(6-Chloro-benzo[d]isoxazol-3-yl)-piperidin-1-yl]-ethyl}-cyclohexyl)-3,3,3-trifluoro-2-hydroxy-propionamide]: the figures for the negative-log Ki (pKi) in assay [1] and in assay [2] were 7.66 and 7.96, respectively.

As to `O=C(CC1CCC2(CC1)OCCO2)N[C@H]1CC[C@H](CCN2CCC(c3noc4cc(Cl)ccc34)CC2)CC1` [Example 36, N-trans (4-{2-[4-(6-Chloro-benzo[d]isoxazol-3-yl)-piperidin-1-yl]-ethyl}-cyclohexyl)-2-(1,4-dioxa-spiro[4.5]dec-8-yl)-acetamide], the pKi is 8.08 in assay [1] and 7.91 in assay [2].

For the compound `COC(CC(=O)N[C@H]1CC[C@H](CCN2CCC(c3noc4cc(Cl)ccc34)CC2)CC1)OC` [Example 37, N-trans-(4-{2-[4-(6-Chloro-benzo[d]isoxazol-3-yl)-piperidin-1-yl]-ethyl}-cyclohexyl)-3,3-dimethoxy-propionamide], the pKi was 7.86 in assay [1] and 8.04 in assay [2].

Take `O=C(CC1CCCO1)N[C@H]1CC[C@H](CCN2CCC(c3noc4cc(Cl)ccc34)CC2)CC1` (stereo partly drawn) [Example 38, N-trans-(4-{2-[4-(6-Chloro-benzo[d]isoxazol-3-yl)-piperidin-1-yl]-ethyl}-cyclohexyl)-2-(tetrahydro-furan-2-yl)-acetamide]: the pKi in assay [1] was 7.89; in assay [2] it was 8.05.

For the compound `C[C@@H](O)CC(=O)N[C@H]1CC[C@H](CCN2CCC(c3noc4cc(Cl)ccc34)CC2)CC1` [Example 39, (R)-N-trans (4-{2-[4-(6-Chloro-benzo[d]isoxazol-3-yl)-piperidin-1-yl]-ethyl}-cyclohexyl)-3-hydroxy-butyramide], the values for the pKi in assay [1] and in assay [2] were 7.89 and 7.77, respectively.

For the compound `CC1(C)OC[C@H](CC(=O)N[C@H]2CC[C@H](CCN3CCC(c4noc5cc(Cl)ccc45)CC3)CC2)O1` [Example 40, N-trans (4-{2-[4-(6-Chloro-benzo[d]isoxazol-3-yl)-piperidin-1-yl]-ethyl}-cyclohexyl)-2-((S)-2,2-dimethyl-[1,3]dioxolan-4-yl)-acetamide], the pKi in assay [1] is 7.60; in assay [2], 8.22.

Regarding `CO[C@H]1CC[C@H](CC(=O)N[C@H]2CC[C@H](CCN3CCC(c4noc5cc(Cl)ccc45)CC3)CC2)C1` [Example 41, N-trans (4-{2-[4-(6-Chloro-benzo[d]isoxazol-3-yl)-piperidin-1-yl]-ethyl}-cyclohexyl)-2-((1S,3S)-3-methoxy-cyclopentyl)-acetamide], the pKi was 7.85 in assay [1] and 8.00 in assay [2].

Take `COC1(C)CCC(CC(=O)N[C@H]2CC[C@H](CCN3CCC(c4noc5cc(Cl)ccc45)CC3)CC2)CC1` (stereo partly drawn) [Example 42, N-trans(4-{2-[4-(6-Chloro-benzo[d]isoxazol-3-yl)-piperidin-1-yl]-ethyl}-cyclohexyl)-2-(4-methoxy-4-methyl-cyclohexyl)-acetamide]: the pKi in assay [1] is 7.72; in assay [2], 8.10.

Turning to `CO[C@]1(C)CC[C@@H](CC(=O)N[C@H]2CC[C@H](CCN3CCC(c4noc5cc(Cl)ccc45)CC3)CC2)CC1` [Example 42A, N-trans(4-{2-[4-(6-Chloro-benzo[d]isoxazol-3-yl)-piperidin-1-yl]-ethyl}-cyclohexyl)-2-(4-trans-methoxy-4-methyl-cyclohexyl)-acetamide], the pKi in assay [1] is 7.80; in assay [2], 8.22.
